# Laboratory results as given in patent US20240041813A1, “VERY-LONG-CHAIN POLYUNSATURATED FATTY ACIDS, ELOVANOID HYDROXYLATED DERIVATIVES, AND METHODS OF USE” (priority 2020, published 2024).
# “Also recorded” adds a separate entry of the source.
# How the values were obtained:
# ACE2 [1] = experiment: Rat cornea alkali burn: ACE2 abundance by Jess capillary-based Western Blot; assay type: in vivo; details: rat cornea after alkali burn; eye drops 20 μl/eye, 3 times/day for 14 days; day 14
# Description: Sprague-Dawley rats (8-week-old male) were obtained from Charles River Laboratories (Wilmington, MA, USA) and kept at the Animal Care of the Neuroscience Center of Excellence, Louisiana State University Health (LSUH; New Orleans, LA, USA). All animals were handled in compliance with the guidelines of the ARVO Statement for the Use of Animals in Ophthalmic and Vision Research, and the experimental protocol was approved by the Institutional Animal Care and Use Committee (IACUC) at LSUH.
# The rats were anesthetized by intraperitoneal injection of Ketamine (50-100 mg/kg) plus xylazine (5-10 mg/kg). A 4 mm diameter filter paper soaked in 1 N NaOH was placed on the central cornea of the right eye for 45 seconds, and then the eye was thoroughly washed with […] of saline. After injury, the rats were randomly divided into five treatment groups: vehicle; lipoxin A4 (LXA4) from Cayman Chemical (Ann Arbor, MI, USA); R,R Resolvin D6 isomer (RvD6i), R,R neuroprotection D (NPD1), and elovanoid (ELV)-N32. All lipid solutions were prepared at the final concentration of […] using PBS with the minimal contamination of ethanol by evaporating the ethanol and immediately dissolve the lipids in PBS, then vortex well for 2 min. Topical administration (20 μl) was done 3×/day for 14 days. The experiments were double-blinded with the lipid mediators coded during the whole experiments. At the end of the study, when all data was collected, the code was opened.
# Briefly, samples were lysed with RIPA buffer containing a protease inhibitor cocktail (Sigma, Cat. P8340). Cell debris was removed after 10 min centrifugation at 16,000×g. Protein concentration was determined by BCA assay (Thermo Fisher Scientific, Cat. 23225) and 1 μg used/reaction. Fluorescent Master Mix was mixed with 40 mM DTT, and the mixture was added to each sample to provide a denaturing and reducing environment. Samples were heated at 95° C./5 min, and 3 μL of each sample were loaded. The 12-230 kDa cartridge (Protein Simple—#SM-W004) was used. Primary antibodies were diluted in antibody diluent 2 buffer (Protein Simple, #042-203) while the working solution of secondary antibodies was provided by the company (Protein Simple, #042-206). Then, the filled plate was spin-down for 10 min at 1,000×g to remove bubbles and plate, and capillaries were loaded into the Jess machine. For data analysis, the area of spectra that matched the molecular weight of the target protein was used. To reduce the coefficient variant, we analyzed the GAPDH for each capillary. The ratio of the targeted protein to GAPDH was used for statistical comparisons. For visualization, the artificial lanes generated from spectra volume was used.
# Alexa 594-RBD [2] = assay type: in vivo; details: rat cornea after alkali burn; 14 days treatment; Alexa 594-RBD 1 μg/eye, 3 times at day 15, examined a day later
# ACE2 [3] = experiment: HCEC challenged with IFNγ: Ace2 gene expression; assay type: cell-based, human; details: IFNγ 100 ng/ml
# Description: All experiments with human corneal epithelial cells were approved by the Institutional Review Board of LSUHNO and conducted in accordance with NIH guidelines. HCEC were kept frozen in the laboratory at passage 2544. Cells were maintained in keratinocyte growth (KGM) medium containing the keratinocyte basal medium (KBM) (Lonza: CC-3101) supplemented with bovine pituitary extract (BPE), hEGF, Insulin, Hydrocortisone and Gentamicin Sulfate-Amphotericin (GA-1000) (Lonza, Cat. CC-4131). For all experiments, cells were seeded at 30,000 cells/cm2.
# (§1) For screening the stimulation of receptor ACE2 by cytokines, the HCEC were cultured with KGM until 50-60% confluence. Then, changed to KBM containing IL-1β, -2, -6 and 8, IFN-α, -ε, and -γ or TNFα at 1, 10 or 100 ng/ml. The cells were harvested after 6 hours and analyze for the gene expression of Ace2. In other experiments, HCEC were stimulated with IFNγ, and thereafter, lipid mediators were added. For the Alexa 594-conjugated RBD binding, IFNγ was used as a cytokine trigger. At 12 hours after cytokine exposure and lipid mediator treatments, […] of labeled RBD was added to the medium. The evaluation of RBD binding was conducted 24 hours after.
# Quantitative PCR was performed with the Biomark HD system (Fluidigm, San Francisco, CA, USA). […]
# Alexa 594-RBD [4] = experiment: HCEC challenged with IFNγ: Alexa 594-RBD binding (unbiased imaging, Imaris); assay type: cell-based, human; details: IFNγ 100 ng/ml and lipid mediators 200 nM for 12 h, images 24 h after RBD
# Procedure: as §1
# Twenty-four hours after Alexa 594-RBD was added to the HCEC, the cells were washed with PBS (3×/5 min) and fixed with 4% paraformaldehyde for 30 minutes at RT. The HCEC were washed 2× with PBS and stained with Hoechst 33342 Solution (ThermoFisher Scientific, Cat. 62249) for 30 minutes at RT. Next, the HCEC were washed 2× with PBS before imaging. For unbiased data collection, 7 designated areas were defined in each well (FIG. 63) and captured with an Olympus FV3000 confocal laser scanning microscopy under “Multi Area Time Lapse” (MATL) mode. All images were acquired with the same parameters and Z-section range, converted and inputted in the Imaris software version 9.5.1. The threshold for the control images was defined by the HCEC without Alexa 594-conjugated RBD of S protein and using it as a threshold filter for the Imaris batch image processing function. The sum of total intensity for each image was used to evaluate the binding efficiency.
# [5] = system: human corneal epithelial cells (HCEC); experiment: HCEC challenged with IFNγ: SASP secretome (β-Gal staining); assay type: cell-based; details: HCEC 24 h after IFN-γ challenge
compound,measurement,setting,value
"CC/C=C\CC(O)\C=C/C=C/C=C/C(O)C/C=C\C/C=C\CCCCCCCCCCCCC(=O)O [ELV-N32, (14Z,17Z,20R,21E,23E,25Z,27S,29Z)-20,27-dihydroxydo-triaconta-14,17,21,23,25,29-hexaenoic acid]","ACE2 abundance (protein, normalized to GAPDH)",ACE2 [1],decrease
same,binding of Alexa 594-RBD to injured cornea,Alexa 594-RBD [2],decrease; also recorded: counteracted
same,IFNγ-triggered Ace2 activation,ACE2 [3],markedly attenuated; also recorded: suppressed
same,IFNγ-stimulated Alexa 594-RBD binding,Alexa 594-RBD [4],decrease; also recorded: attenuated
same,senescence programming genes and SASP secretome activation (β-Gal),[5],blocked; also recorded: suppressed
